These results are taken from patent US8334403B1, “C-lysine conjugates as pH-controlled, light-activated reagents for double stranded DNA cleavage and associated methods” (Florida State University Research Foundation, Inc., priority 2005, dated 2012).

For series [1] the following is noted: published literature; cited from earlier work.
Series [2] in a line: pH (pD) titration by 1H-NMR in D2O. The class given is physicochemical. The settings on record: uncorrected. The method, then:
General information. ^1H, ^13C and ^19F NMR were collected on a Varian Gemini 300 MHz NMR spectrometer and a Bruker 300 MHz NMR spectrometer. Mass spectrometry data was collected on a Jeol JMS-600H. UV spectra were recorded on a Shimadzu UV-2100. Fluorescence spectra were obtained with SPEX FluoMax spectrofluorimeter using right-angle geometry. pH was adjusted with AB 15 plus pH meter (Accument) after standardization at 25° C. All buffers were prepared and pH-adjusted at room temperature (25° C.). Plasmid DNA Photocleavage. pBR322 plasmid DNA (4,361 b/p; from BioLabs Inc., 1 μg/μL solution in 10 mM Tris-HCl (pH 8.0), and 1 mM EDTA buffer) was diluted to a concentration of 0.01 μg/μL. The solution containing cleavage agent, DNA (30 μM/bp) in 20 mM sodium phosphate buffer was incubated for 1 hour at 30° C. […] The relative quantities of the supercoiled, nicked, and linear DNA were calculated by integrating the “area” of each spot by the image analyzer software Total/Lab (Nonlinear Dynamics Ltd., UK). […] Absorbance and fluorescence titration with DNA. The concentrations of calf thymus DNA stock solution was determined spectophotometrically using the following molar absorptovity values: 1.32×10^4 M^−1 cm^−1 (per base pair) at 260 nm. […]

SMILES strings stand for the structures. Marks after values point to notes of the source that are not given here.

For the compound `NCCCC[C@H](N)C(=O)O` [Lysine], in series [1], the pKa1 is listed as 8.95^b and the pKa2 is listed as 10.53^b.
`Cl.Cl.NCCCC[C@H](N)C(=O)Nc1ccccc1` [Compound 8, (S)-2,6-Diaminohexanoic acid phenyl-amide dihydrochloride]: in series [2], the “pKa1 (α-amino group)” value is listed as 7.56 and the “pKa2 (ε-amino group)” value worked out at 10.75.
